According to patent US20030212006A1, “Method for reducing free radical formation in healthy individuals undergoing hypoxic exercise and medical conditions with increased oxygen free radicals” (priority 2002, published 2003):

Experiments:
Assay type in all cases: in vivo, human
[1] = Reduced plasma glutathione (GSH) after a single cycling bout under hypoxic conditions; settings: 7 grams ribose before and after exercise; n=7 subjects; p=0.000
Experimental: (§1) Seven healthy, moderately to highly conditioned subjects volunteered to participate in this randomized, blinded, crossover trial. All subjects were between the ages of 23 and 41 years of age, and each subject cycled in two distinct trial arms, a ribose phase and a control phase. One week separated each trial arm. Subjects ingested either 7 grams of ribose in 250 mL of water or just plain water, five minutes prior to the start of exercise and again within five minutes following exercise. The scheduled exercise was 25 minutes of cycling at a workload relating to the lactic acid threshold. Subjects inhaled a hypoxic gas mixture of 16% oxygen and 84% nitrogen through a one-way breathing valve during the exercise bout. Following the cycling exercise, subjects sat quietly for 60 minutes and breathed room air during the recovery phase. All tests were conducted at room temperature. […] A whole blood sample was analyzed for hemoglobin. […] Each frozen plasma sample was analyzed for total protein and uric acid levels. Plasma samples were also analyzed for reduced glutathione levels (GSH kit, Oxis Research, Portland, Oreg.) and volumes were corrected for potential fluid loss by measuring total protein values. The frozen urine samples were analyzed for MDA (MDA kit, Oxis Research, Portland, Oreg.). […]

[2] = Heart rate during a cycling bout under hypoxic conditions; settings: n=7 subjects
Experimental: Seven healthy, moderately to highly conditioned subjects volunteered to participate in this randomized, blinded, crossover trial. All subjects were between the ages of 23 and 41 years of age, and each subject cycled in two distinct trial arms, a ribose phase and a control phase. One week separated each trial arm. Subjects ingested either 7 grams of ribose in 250 mL of water or just plain water, five minutes prior to the start of exercise and again within five minutes following exercise. The scheduled exercise was 25 minutes of cycling at a workload relating to the lactic acid threshold. Subjects inhaled a hypoxic gas mixture of 16% oxygen and 84% nitrogen through a one-way breathing valve during the exercise bout. Following the cycling exercise, subjects sat quietly for 60 minutes and breathed room air during the recovery phase. All tests were conducted at room temperature. The cardiovascular parameters of heart rate and oxygen pulse saturation (SpO2) were collected at 9 minutes, 17 minutes, and 25 minutes of exercise. Oxygen pulse saturation was collected with a Nonin pulse oximeter (Nonin Medical Inc., Plymouth, Minn.). […] The 4.8% vs. 7.5% represents heart rates of 175 beats per minute (bpm) and 181 bpm for ribose and placebo (n=7 subjects).

[3] = Urinary MDA after a single cycling bout under hypoxic conditions (16% oxygen), crossover trial; settings: 7 grams ribose in 250 mL water before and after exercise; compared to the placebo; n=7 subjects; p=0.01
Experimental: as §1

[4] = Subjective ranking of exercise and recovery by blinded subjects
Experimental: Seven healthy, moderately to highly conditioned subjects volunteered to participate in this randomized, blinded, crossover trial. All subjects were between the ages of 23 and 41 years of age, and each subject cycled in two distinct trial arms, a ribose phase and a control phase. One week separated each trial arm. Subjects ingested either 7 grams of ribose in 250 mL of water or just plain water, five minutes prior to the start of exercise and again within five minutes following exercise. The scheduled exercise was 25 minutes of cycling at a workload relating to the lactic acid threshold. Subjects inhaled a hypoxic gas mixture of 16% oxygen and 84% nitrogen through a one-way breathing valve during the exercise bout. Following the cycling exercise, subjects sat quietly for 60 minutes and breathed room air during the recovery phase. All tests were conducted at room temperature. […] During the control trial, subjects expressed strong desires to take a nap during the recovery period. Additionally, four of the subjects reported that after leaving the laboratory, they went home and took long (>2 hours) naps.

O=C[C@H](O)[C@H](O)[C@H](O)CO [ribose, D-ribose]
Percent change in plasma GSH [1]: significantly lower | Heart rate ([2]; during hypoxic exercise, placebo 181 bpm): 175 bpm | Percent change in heart rate during exercise (in words) ([2]; ribose supplementation vs placebo, p=0.03): significantly less | Percent change in heart rate during exercise ([2]; ribose supplementation, placebo 7.5%): 4.8% | Percent change in urine MDA [3]: significantly lower | Blinded subjects who ranked the exercise easier and felt they had a faster recovery period ([4]; after cycling when they ingested ribose): 6 out of 7 | Comments and symptoms observed during recovery ([4]; recovery after hypoxic cycling when ribose was ingested): decreased lethargy
